Structures are written as SMILES.

This experiment deals with T1, human PAD4 (Homo sapiens, UniProt Q9UM07).
T1 construct: human PAD4 (NM_012387), A2-P663, was PCR amplified; His-SUMO (N, cleaved yes); made in house; host or cells: E. coli BL21(DE3)
T1 sequence (Q9UM07 2-663): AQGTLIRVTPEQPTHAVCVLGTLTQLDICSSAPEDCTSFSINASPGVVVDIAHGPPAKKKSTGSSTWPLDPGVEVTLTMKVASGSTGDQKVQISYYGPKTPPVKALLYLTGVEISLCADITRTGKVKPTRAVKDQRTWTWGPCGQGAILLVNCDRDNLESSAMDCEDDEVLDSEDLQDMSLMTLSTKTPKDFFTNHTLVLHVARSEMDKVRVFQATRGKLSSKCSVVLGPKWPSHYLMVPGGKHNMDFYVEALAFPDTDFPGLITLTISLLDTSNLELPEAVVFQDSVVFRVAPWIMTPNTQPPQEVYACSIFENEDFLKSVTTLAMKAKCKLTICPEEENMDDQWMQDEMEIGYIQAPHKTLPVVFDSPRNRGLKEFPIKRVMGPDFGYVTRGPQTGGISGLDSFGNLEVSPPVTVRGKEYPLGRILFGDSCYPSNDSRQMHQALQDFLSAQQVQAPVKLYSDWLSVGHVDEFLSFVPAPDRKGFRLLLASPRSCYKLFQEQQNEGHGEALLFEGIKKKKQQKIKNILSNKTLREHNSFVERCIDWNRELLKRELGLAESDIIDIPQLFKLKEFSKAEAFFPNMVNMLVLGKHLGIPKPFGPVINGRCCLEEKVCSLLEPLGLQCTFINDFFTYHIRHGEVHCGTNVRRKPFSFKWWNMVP
The experiment is described as follows: In vitro PAD4 BAEE biochemical assay. The following applies: BAEE substrate 3 mM, 5 nM PAD4, 2 mM calcium chloride; geometric mean of multiple experiments. The procedure, abridged: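 PAD4 5 nM, CaCl2 2 mM, BAEE 3 mM final; 50 mM MOPS pH 7.6, 50 mM NaCl, 0.05% Tween-20, 2 mM DTT. Cpd + enzyme 30 min 25 °C; substrate 2 h 25 °C; EDTA stop; OPA detection 1 h. IC50 4-parameter fit.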
`COc1cc(C(=O)N2[C@H]3CC[C@@H]2[C@H](N)C3)cc2nc(-c3cc4ccc5nc4n3CCCCCCCC(=O)N[C@@H]5C)n(C)c12` [Example 285, (11~{R})-17-[5-[(1~{R},2~{R},4~{S})-2-amino-7-azabicyclo[2.2.1]heptane-7-carbonyl]-7-methoxy-1-methyl-benzimidazol-2-yl]-11-methyl-1,10,19-triazatricyclo[10.5.2.0^{15,18}]nonadeca-12(19),13,15(18),16-tetraen-9-one]: the half-maximal inhibitory concentration (IC50) – broadly, the concentration at which inhibition is half-maximal – is 7 nM.

Take `COc1cc(C(=O)N2[C@H]3CC[C@@H]2[C@H](N)C3)cc2nc(-c3cc4ccc5nc4n3CCCCCCCCC(=O)N[C@@H]5C)n(C)c12` [Example 286, (12~{R})-18-[5-[(1~{R},2~{R},4~{S})-2-amino-7-azabicyclo[2.2.1]heptane-7-carbonyl]-7-methoxy-1-methyl-benzimidazol-2-yl]-12-methyl-1,11,20-triazatricyclo[11.5.2.0^{16,19}]icosa-13(20),14,16(19),17-tetraen-10-one]: the IC50 amounted to 9 nM.

As for `COc1cc(C(=O)N2[C@H]3CC[C@@H]2[C@H](N)C3)cc2nc(-c3cc4ccc5nc4n3CCCCCCCCCC(=O)N[C@@H]5C)c(C)n12` [Example 287, (13~{R})-19-[7-[(1~{R},2~{R},4~{S})-2-amino-7-azabicyclo[2.2.1]heptane-7-carbonyl]-5-methoxy-3-methyl-imidazo[1,2-a]pyridin-2-yl]-13-methyl-1,12,21-triazatricyclo[12.5.2.0^{17,20}]henicosa-14(21),15,17(20),18-tetraen-11-one], the IC50 worked out at 55 nM.

In the case of `COc1cc(C(=O)N2C[C@H]3CC[C@@H]2[C@@H]3N)cc2nc(-c3cc4ccc5nc4n3CCCCCCCC(=O)N[C@@H]5C)n(C)c12` [Example 288, (11~{R})-17-[5-[(1~{R},4~{R},7~{R})-7-amino-2-azabicyclo[2.2.1]heptane-2-carbonyl]-7-methoxy-1-methyl-benzimidazol-2-yl]-11-methyl-1,10,19-triazatricyclo[10.5.2.0^{15,18}]nonadeca-12(19),13,15(18),16-tetraen-9-one], the IC50 amounted to 36 nM.

As for `COc1cc(C(=O)N2C[C@H]3CC[C@@H]2[C@@H]3N)cc2nc(-c3cc4ccc5nc4n3CCCCCCCCC(=O)N[C@@H]5C)n(C)c12` [Example 289, (12~{R})-18-[5-[(1~{R},4~{R},7~{R})-7-amino-2-azabicyclo[2.2.1]heptane-2-carbonyl]-7-methoxy-1-methyl-benzimidazol-2-yl]-12-methyl-1,11,20-triazatricyclo[11.5.2.0^{16,19}]icosa-13(20),14,16(19),17-tetraen-10-one], the IC50 was 25 nM.

Regarding `COc1cc(C(=O)N2C[C@H]3CC[C@@H]2[C@@H]3N)cc2nc(-c3cc4ccc5nc4n3CCCCCCCCCC(=O)N[C@@H]5C)c(C)n12` [Example 290, (13~{R})-19-[7-[(1~{R},4~{R},7~{R})-7-amino-2-azabicyclo[2.2.1]heptane-2-carbonyl]-5-methoxy-3-methyl-imidazo[1,2-a]pyridin-2-yl]-13-methyl-1,12,21-triazatricyclo[12.5.2.0^{17,20}]henicosa-14(21),15,17(20),18-tetraen-11-one], the IC50 turned out to be 221 nM.

As for `COc1cc(C(=O)N2CCC[C@@H](N)C2)cc2nc(-c3cc4ccc5nc4n3CCCCCCCCOC5C)n(C)c12` (stereo partly shown) [Example 291, [(3˜{R})-3-amino-1-piperidyl]-[7-methoxy-1-methyl-2-(11-methyl-10-oxa-1,19-diazatricyclo[10.5.2.0^{15,18}]nonadeca-12(19),13,15(18),16-tetraen-17-yl)benzimidazol-5-yl]methanone], the IC50 came to 335 nM.

In the case of `COc1cc(C(=O)N2CCC[C@@H](N)C2)cc2nc(-c3cc4ccc5nc4n3C[C@H]3C[C@@H]3CCCC(C)(C)C(=O)N[C@@H]5C)n(C)c12` [Example 292, (3~{S),5~{S},12~{R})-18-[5-[(3~{R})-3-aminopiperidine-1-carbonyl]-7-methoxy-1-methyl-benzimidazol-2-yl]-9,9,12-trimethyl-1,11,20-triazatetracyclo[11.5.2.0^{3,5}.0^{16,19}] icosa-13(20),14,16(19),17-tetraen-10-one], the 50% inhibitory concentration (IC50) is 53 nM.

Take `COc1cc(C(=O)N2CCC[C@@H](N)C2)cc2nc(-c3cc4ccc5nc4n3CCCCCCNC(=O)CO5)c(C)n12` [Example 293, 17-[7-[(3˜{R})-3-aminopiperidine-1-carbonyl]-5-methoxy-3-methyl-imidazo[1,2-a]pyridin-2-yl]-11-oxa-1,8,19-triazatricyclo[10.5.2.0^{15,18}]nonadeca-12(19),13,15(18),16-tetraen-9-one]: the IC50 is 548 nM.

Turning to `COc1cc(C(=O)N[C@H]2CNCCC2(F)F)cc2nc(-c3cc4ccc5nc4n3CCCCCCC(C)(C)C(=O)N[C@@H]5C)n(C)c12` [Example 294, ~{N}-[(3~{S})-4,4-difluoro-3-piperidyl]-7-methoxy-1-methyl-2-[(11~{R})-8,8,11-trimethyl-9-oxo-1,10,19-triazatricyclo[10.5.2.0^{15,18}]nonadeca-12(19),13,15(18),16-tetraen-17-yl]benzimidazole-5-carboxamide], the half-inhibitory concentration (IC50) was determined as 275 nM.

`COc1cc(C(=O)N[C@H]2CNCC[C@H]2O)cc2nc(-c3cc4ccc5nc4n3CCCCCCC(C)(C)C(=O)N[C@@H]5C)n(C)c12` [Example 295, ~{N}-[(3~{S},4~{R})-4-hydroxy-3-piperidyl]-7-methoxy-1-methyl-2-[(11~{R})-8,8,11-trimethyl-9-oxo-1,10,19-triazatricyclo[10.5.2.0^{15,18}]nonadeca-12(19),13,15(18),16-tetraen-17-yl]benzimidazole-5-carboxamide]: the IC50 amounted to 3350 nM.

Take `COc1cc(C(=O)N[C@@H]2CNCCC2(F)F)cc2nc(-c3cc4ccc5nc4n3CCCCCCC(C)(C)C(=O)N[C@@H]5C)n(C)c12` [Example 296, ~{N}-[(3~{R})-4,4-difluoro-3-piperidyl]-7-methoxy-1-methyl-2-[(11~{R})-8,8,11-trimethyl-9-oxo-1,10,19-triazatricyclo[10.5.2.0^{15,18}]nonadeca-12(19),13,15(18),16-tetraen-17-yl]benzimidazole-5-carboxamide]: the IC50 came to 23700 nM.

For the compound `COc1cc(C(=O)N2CC[C@@H](OC(F)F)[C@@H](N)C2)cc2nc(-c3cc4ccc5nc4n3CCCCCCC(C)(C)C(=O)N[C@@H]5C)n(C)c12` [Example 297, (11~{R})-17-[5-[(3~{S},4~{R})-3-amino-4-(difluoromethoxy)piperidine-1-carbonyl]-7-methoxy-1-methyl-benzimidazol-2-yl]-8,8,11-trimethyl-1,10,19-triazatricyclo[10.5.2.0^{15,18}]nonadeca-12(19),13,15(18),16-tetraen-9-one], the IC50 is 129 nM.

Take `COc1cc(C(=O)N2CCC[C@@H](N)C2)cc2nc(-c3cc4ccc5nc4n3CCOCCOCCOC5C)n(C)c12` (stereo partly shown) [Example 298, [(3~{R})-3-amino-1-piperidyl]-[7-methoxy-1-methyl-2-(11-methyl-4,7,10-trioxa-1,19-diazatricyclo[10.5.2.0^{15,18}]nonadeca-12(19),13,15(18),16-tetraen-17-yl)benzimidazol-5-yl]methanone]: the IC50 amounted to 914 nM.

Regarding `COc1cc(C(=O)N2C[C@H](N)CCN2C)cc2nc(-c3cc4ccc5nc4n3CCCCCCC(C)(C)C(=O)N[C@@H]5C)n(C)c12` [Example 299, (11~{R})-17-[5-[(5~{R})-5-amino-2-methyl-hexahydropyridazine-1-carbonyl]-7-methoxy-1-methyl-benzimidazol-2-yl]-8,8,11-trimethyl-1,10,19-triazatricyclo[10.5.2.0^{15,18}]nonadeca-12(19),13,15(18),16-tetraen-9-one], the half-maximal inhibitory concentration (IC50) worked out at 58 nM.

With `COc1cc(C(=O)N2CCC[C@@H](N)C2)cc2nc(-c3cc4ccc5nc4n3CCCCCCC(=O)N[C@@H]5C)c(C)n12` [Example 300, (10~{R})-16-[7-[(3~{R})-3-aminopiperidine-1-carbonyl]-5-methoxy-3-methyl-imidazo[1,2-a]pyridin-2-yl]-10-methyl-1,9,18-triazatricyclo[9.5.2.0^{14,17}]octadeca-11(18),12,14(17),15-tetraen-8-one], the half-maximal inhibitory concentration (IC50) came out at 50 nM.

For `COc1cc(C(=O)N2CCC[C@@H](N)C2)cc2nc(-c3cc4ccc5nc4n3CCCCCCCC(=O)N[C@@H]5C)c(C)n12` [Example 301, (11~{R})-17-[7-[(3~{R})-3-aminopiperidine-1-carbonyl]-5-methoxy-3-methyl-imidazo[1,2-a]pyridin-2-yl]-11-methyl-1,10,19-triazatricyclo[10.5.2.0^{15,18}]nonadeca-12(19),13,15(18),16-tetraen-9-one], the half-inhibitory concentration (IC50) amounted to 36 nM.

`COc1cc(C(=O)N2C[C@H]3CC[C@@H]2[C@@H]3N)cc2nc(-c3cc4ccc5nc4n3CCCCCCCC(=O)N[C@@H]5C)c(C)n12` [Example 302, (11~{R})-17-[7-[(1~{R},4~{R},7~{R})-7-amino-2-azabicyclo[2.2.1]heptane-2-carbonyl]-5-methoxy-3-methyl-imidazo[1,2-a]pyridin-2-yl]-11-methyl-1,10,19-triazatricyclo[10.5.2.0^{15,18}]nonadeca-12(19),13,15(18),16-tetraen-9-one]: the IC50 stood at 67 nM.

As to `COc1cc(C(=O)N2CCC[C@@H](N)C2)cc2nc(-c3cc4ccc5nc4n3CCC3(CC3)COCCC(=O)N[C@@H]5C)c(C)n12` [Example 303, (11~{R})-17-[7-[(3~{R})-3-aminopiperidine-1-carbonyl]-5-methoxy-3-methyl-imidazo[1,2-a]pyridin-2-yl]-11-methyl-spiro[6-oxa-1,10,19-triazatricyclo[10.5.2.0^{15,18}]nonadeca-12(19),13,15(18),16-tetraene-4,1′-cyclopropane]-9-one], the half-maximal inhibitory concentration (IC50) amounted to 525 nM.

(Values after patent publication US11976083B2, “Inhibitors of peptidylarginine deiminases” (Gilead Sciences, Inc., priority 2020, dated 2024).)
